# Patent US10597388B2, “Pyridazinone herbicides” (FMC CORPORATION, priority 2014, dated 2020)
# Columns and labels:
# Format in all cases: in vivo
# [1] = system: barley, winter (winter barley, Hordeum vulgare); assay: Test D controlled growth environment herbicide test, pre- and postemergence
# Procedure, shortened: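 Pre-emergence: seeds sown in silt loam soil were sprayed with compound in a non-phytotoxic solvent mix containing surfactant. Post-emergence: plants at 2 to 18 cm (1- to 4-leaf stage) in peat moss/vermiculite medium got the same formulation. Visual 0–100 rating versus controls after 14 to 21 d.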
# [2] = system: arrowleaf sida (Sida rhombifolia); assay: Test E greenhouse herbicide test, pre- and postemergence; conditions: Preemergence
# Text: (§1) Seeds of plant species selected from corn (Zea mays), soybean (Glycine max), velvetleaf (Abutilon theophrasti), lambsquarters (Chenopodium album), wild poinsettia (Euphorbia heterophylla), pigweed, palmer (palmer pigweed, Amaranthus palmeri), waterhemp (common waterhemp, Amaranthus rudis), surinam grass (Brachiaria decumbens), crabgrass, large (large crabgrass, Digitaria sanguinalis), crabgrass, Brazilian (Brazilian crabgrass, Digitaria horizontalis), panicum, fall (fall panicum, Panicum dichotomiflorum), foxtail, giant (giant foxtail, Setaria faberii), foxtail, green (green foxtail, Setaria viridis), goosegrass (Eleusine indica), johnsongrass (Sorghum halepense), ragweed (common ragweed, Ambrosia elatior), barnyardgrass (Echinochloa crus-galli), sandbur (southem sandbur, Cenchrus echinatus), arrowleaf sida (Sida rhombifolia), Italian ryegrass (Lolium multiflorum), dayflower (Virginia (VA) dayflower, Commelina virginica), field bindweed (Convolvulus arvensis), momingglory (Ipomoea coccinea), nightshade (eastern black nightshade, Solanum ptycanthum), kochia (Kochia scoparia), nutsedge, yellow (yellow nutsedge, Cyperus esculentus), horseweed (Conyza canadensis), and beggarticks (hairy beggarticks, Bidens pilosa), were planted into a silt loam soil and treated preemergence with test chemicals formulated in a non-phytotoxic solvent mixture which included a surfactant.
# (§2) At the same time, plants from these crop and weed species and also waterhemp_RES1, (ALS & Triazine resistant common waterhemp, Amaranthus rudis), and waterhemp_RES2, (ALS & HPPD resistant common waterhemp, Amaranthus rudis) were planted in pots containing Redi-Earth® planting medium (Scotts Company, 14111 Scottslawn Road, Marysville, Ohio 43041) comprising spaghnum peat moss, vermiculite, wetting agent and starter nutrients were treated with postemergence applications of test chemicals formulated in the same manner. Plants ranged in height from 2 to 18 cm for postemergence treatments (1- to 4-leaf stage). Treated plants and controls were maintained in a greenhouse for 14 to 21 d, after which time all species were compared to controls and visually evaluated. Plant response ratings, summarized in Table E, are based on a scale of 0 to 100 where 0 is no effect and 100 is complete control. A dash (-) response means no test result.
# [3] = system: dayflower (Virginia (VA) dayflower, Commelina virginica); assay: as above; conditions: Preemergence
# Text: as §1, §2
# [4] = system: johnsongrass (Sorghum halepense); assay: as above; conditions: Preemergence
# Text: as §1, §2
# [5] = system: lambsquarters (Chenopodium album); assay: as above; conditions: Preemergence
# Text: as §1, §2
# [6] = system: nightshade (eastern black nightshade, Solanum ptycanthum); assay: as above; conditions: Preemergence
# Text: as §1, §2
# [7] = system: sandbur (southem sandbur, Cenchrus echinatus); assay: as above; conditions: Preemergence
# Text: as §1, §2
# soybean (Glycine max) = assay: as above; conditions: Preemergence
# Text: as §1, §2
# [8] = system: surinam grass (Brachiaria decumbens); assay: as above; conditions: Preemergence
# Text: as §1, §2
# [9] = Postemergence, 31 g ai/ha, scale 0 to 100 (0 no effect, 100 complete control)
# [10] = Postemergence, 125 g ai/ha, visual rating on scale 0 (no effect) to 100 (complete control), 14 to 21 d
# [11] = Postemergence, 250 g ai/ha, scale 0 to 100 (0 no effect, 100 complete control)
# [12] = Preemergence, 62 g ai/ha, scale 0 to 100 (0 no effect, 100 complete control)
# [13] = Preemergence, 125 g ai/ha, scale 0 to 100 (0 no effect, 100 complete control)
# [14] = Preemergence, 250 g ai/ha, scale 0 to 100 (0 no effect, 100 complete control)
# [15] = postemergence, 62 g ai/ha, scale 0 to 100, 0 no effect, 100 complete control
# [16] = 62 g ai/ha, scale 0 to 100 (0 no effect, 100 complete control)
# [17] = 31 g ai/ha, scale 0 to 100, 0 no effect, 100 complete control
# [18] = 125 g ai/ha, visual, scale 0 no effect to 100 complete control
# [19] = 250 g ai/ha, visual, scale 0 no effect to 100 complete control
# [20] = 125 g ai/ha, scale 0 to 100 (0 no effect, 100 complete control)
smiles,measurement,setting,value
COc1nn(C)c(=O)c(-c2c(C)ccc3ccccc23)c1OC(=O)OC(C)C [Compound 36],"Plant response rating, Barley, Winter",[1]; [9],0
same,"Plant response rating, Barley, Winter",[1]; [10],5
same,"Plant response rating, Barley, Winter",[1]; [11],10
same,"Plant response rating (scale of 0 to 100), Barley, Winter","[1]; Preemergence, 31 g ai/ha",0
same,"Plant response rating, Barley, Winter",[1]; [12],0
same,"Plant response rating, Barley, Winter",[1]; [13],0
same,"Barley, Winter plant response rating",[1]; [14],0
same,"Plant response rating, Barley, Winter",[1]; [15],0
CCOC(=O)Oc1c(C)nn(C)c(=O)c1-c1c(CC)ccc2ccccc12 [Compound 37],"Plant response rating, Arrowleaf Sida",[2]; [16],85
same,"Plant response rating, Arrowleaf Sida",[2]; [17],70
same,"Plant response rating, Arrowleaf Sida",[2]; [18],90
same,"Plant response rating, Arrowleaf Sida",[2]; [19],98
same,"Plant response rating, Dayflower, VA",[3]; [16],5
same,"Plant response rating, Dayflower, VA",[3]; [17],0
same,"Plant response rating, Dayflower, VA",[3]; [18],40
same,"Plant response rating, Dayflower, VA",[3]; [19],60
same,"Plant response rating, Johnsongrass",[4]; [16],0
same,"Plant response rating, Johnsongrass",[4]; [17],0
same,"Plant response rating, Johnsongrass",[4]; [18],100
same,"Plant response rating, Johnsongrass",[4]; [19],100
same,"Plant response rating, Lambsquarters",[5]; [16],100
same,"Plant response rating, Lambsquarters",[5]; [17],100
same,"Plant response rating, Lambsquarters",[5]; [18],98
same,"Plant response rating, Lambsquarters",[5]; [19],100
same,"Plant response rating, Nightshade",[6]; [16],80
same,"Plant response rating, Nightshade",[6]; [20],98
same,"Plant response rating, Nightshade",[6]; [17],90
same,"Plant response rating, Nightshade",[6]; [19],98
same,"Plant response rating, Sandbur",[7]; [16],35
same,"Plant response rating, Sandbur",[7]; [20],50
same,"Plant response rating, Sandbur",[7]; [17],20
same,"Plant response rating, Sandbur",[7]; [19],65
same,"Plant response rating, Soybean",soybean (Glycine max); [16],0
same,"Plant response rating, Soybean",soybean (Glycine max); [17],0
same,"Plant response rating, Soybean",soybean (Glycine max); [19],0
same,"Plant response rating, Surinam Grass",[8]; [16],75
same,"Plant response rating, Surinam Grass",[8]; [20],75
same,"Plant response rating, Surinam Grass",[8]; [17],50
same,"Plant response rating, Surinam Grass",[8]; [19],90
Cc1ccc(-c2c(O)c(Br)nn(C)c2=O)c2ccccc12 [Compound 52],"Barley, Winter plant response rating",[1]; [9],0
same,"Plant response rating, Barley, Winter",[1]; [10],0
same,"Plant response rating, Barley, Winter",[1]; [11],0
same,"Plant response rating (scale of 0 to 100), Barley, Winter","[1]; Preemergence, 31 g ai/ha",0
same,"Plant response rating, Barley, Winter",[1]; [12],0
same,"Plant response rating, Barley, Winter",[1]; [13],0
same,"Plant response rating, Barley, Winter",[1]; [14],0
same,"Plant response rating, Barley, Winter",[1]; [15],0
COc1nn(C)c(=O)c(-c2c(C)ccc3ccccc23)c1O [Compound 54],"Barley, Winter plant response rating",[1]; [9],0
same,"Plant response rating, Barley, Winter",[1]; [10],5
same,"Plant response rating, Barley, Winter",[1]; [11],30
same,"Plant response rating (scale of 0 to 100), Barley, Winter","[1]; Preemergence, 31 g ai/ha",0
same,"Plant response rating, Barley, Winter",[1]; [12],0
same,"Plant response rating, Barley, Winter",[1]; [13],0
same,"Plant response rating, Barley, Winter",[1]; [14],0
same,"Plant response rating, Barley, Winter",[1]; [15],0
Cc1ccc2ccccc2c1-c1c(O)c(C)nn(C)c1=O [Compound 59],"Barley, Winter plant response rating",[1]; [9],20
same,"Plant response rating, Barley, Winter",[1]; [10],45
same,"Plant response rating, Barley, Winter",[1]; [11],60
same,"Plant response rating (scale of 0 to 100), Barley, Winter","[1]; Preemergence, 31 g ai/ha",15
same,"Plant response rating, Barley, Winter",[1]; [12],25
same,"Plant response rating, Barley, Winter",[1]; [13],40
same,"Plant response rating, Barley, Winter",[1]; [14],45
same,"Plant response rating, Barley, Winter",[1]; [15],30
same,"Plant response rating, Arrowleaf Sida",[2]; [16],95
same,"Plant response rating, Arrowleaf Sida",[2]; [17],80
same,"Plant response rating, Arrowleaf Sida",[2]; [18],98
same,"Plant response rating, Arrowleaf Sida",[2]; [19],98
same,"Plant response rating, Dayflower, VA",[3]; [16],40
same,"Plant response rating, Dayflower, VA",[3]; [17],10
same,"Plant response rating, Dayflower, VA",[3]; [18],80
same,"Plant response rating, Dayflower, VA",[3]; [19],80
same,"Plant response rating, Johnsongrass",[4]; [16],25
same,"Plant response rating, Johnsongrass",[4]; [17],0
same,"Plant response rating, Johnsongrass",[4]; [18],80
same,"Plant response rating, Johnsongrass",[4]; [19],80
same,"Plant response rating, Lambsquarters",[5]; [16],100
same,"Plant response rating, Lambsquarters",[5]; [17],100
same,"Plant response rating, Lambsquarters",[5]; [18],100
same,"Plant response rating, Lambsquarters",[5]; [19],100
same,"Plant response rating, Sandbur",[7]; [16],70
same,"Plant response rating, Sandbur",[7]; [20],90
same,"Plant response rating, Sandbur",[7]; [17],70
same,"Plant response rating, Sandbur",[7]; [19],90
same,"Plant response rating, Soybean",soybean (Glycine max); [16],30
same,"Plant response rating, Soybean",soybean (Glycine max); [20],30
same,"Plant response rating, Soybean",soybean (Glycine max); [17],35
same,"Plant response rating, Soybean",soybean (Glycine max); [19],70
same,"Plant response rating, Surinam Grass",[8]; [16],90
same,"Plant response rating, Surinam Grass",[8]; [20],100
same,"Plant response rating, Surinam Grass",[8]; [17],85
same,"Plant response rating, Surinam Grass",[8]; [19],100
Cc1ccc2ccc(C)c(-c3c(O)c(C)nn(C)c3=O)c2c1 [Compound 60],"Barley, Winter plant response rating",[1]; [9],10
same,"Plant response rating, Barley, Winter",[1]; [10],40
same,"Plant response rating, Barley, Winter",[1]; [11],50
same,"Plant response rating (scale of 0 to 100), Barley, Winter","[1]; Preemergence, 31 g ai/ha",15
same,"Plant response rating, Barley, Winter",[1]; [12],30
same,"Plant response rating, Barley, Winter",[1]; [13],50
same,"Plant response rating, Barley, Winter",[1]; [14],65
same,"Plant response rating, Barley, Winter",[1]; [15],25
Cc1cc(C)c2sc(C)c(-c3c(OC(=O)OC(C)C)c(C)nn(C)c3=O)c2c1 [Compound 67],"Barley, Winter plant response rating",[1]; [9],0
same,"Plant response rating, Barley, Winter",[1]; [10],5
same,"Plant response rating, Barley, Winter",[1]; [11],10
same,"Plant response rating (scale of 0 to 100), Barley, Winter","[1]; Preemergence, 31 g ai/ha",0
same,"Plant response rating, Barley, Winter",[1]; [12],0
same,"Plant response rating, Barley, Winter",[1]; [13],0
same,"Plant response rating, Barley, Winter",[1]; [14],0
same,"Plant response rating, Barley, Winter",[1]; [15],0
CCOC(=O)Oc1c(C)nn(C)c(=O)c1-c1c(C)ccc2ccccc12 [Compound 73],"Barley, Winter plant response rating",[1]; [9],15
same,"Plant response rating, Barley, Winter",[1]; [10],20
same,"Plant response rating, Barley, Winter",[1]; [11],35
same,"Plant response rating (scale of 0 to 100), Barley, Winter","[1]; Preemergence, 31 g ai/ha",5
same,"Plant response rating, Barley, Winter",[1]; [12],40
same,"Plant response rating, Barley, Winter",[1]; [13],60
same,"Plant response rating, Barley, Winter",[1]; [14],75
same,"Plant response rating, Barley, Winter",[1]; [15],15
Cc1nn(C)c(=O)c(-c2c(C)sc3ccc(Cl)cc23)c1O [Compound 104],"Barley, Winter plant response rating",[1]; [9],0
same,"Plant response rating, Barley, Winter",[1]; [10],10
same,"Plant response rating, Barley, Winter",[1]; [11],15
same,"Plant response rating (scale of 0 to 100), Barley, Winter","[1]; Preemergence, 31 g ai/ha",0
same,"Plant response rating, Barley, Winter",[1]; [12],0
same,"Plant response rating, Barley, Winter",[1]; [13],10
same,"Plant response rating, Barley, Winter",[1]; [14],20
same,"Plant response rating, Barley, Winter",[1]; [15],10
CC(=O)Oc1c(Br)nn(C)c(=O)c1-c1c(C)ccc2ccccc12 [Compound 129],"Barley, Winter plant response rating",[1]; [9],10
same,"Plant response rating, Barley, Winter",[1]; [10],30
same,"Plant response rating, Barley, Winter",[1]; [11],35
same,"Plant response rating (scale of 0 to 100), Barley, Winter","[1]; Preemergence, 31 g ai/ha",0
same,"Plant response rating, Barley, Winter",[1]; [12],0
same,"Plant response rating, Barley, Winter",[1]; [13],0
same,"Plant response rating, Barley, Winter",[1]; [14],10
same,"Plant response rating, Barley, Winter",[1]; [15],20
